Measured values as given in patent US10398144B2, “N-,C-disubstituted azoles and compositions and methods for controlling nematode pests” (Monsanto Technology LLC, priority 2013, dated 2019).
Marks after values point to notes of the source that are not given here.

Tests used:
[1] = tested on: Meloidogyne incognita nematodes; assay: Miniaturized greenhouse nematicidal efficacy assay (cucumber root gall rating); conditions: average of triplicate gall ratings
Description: A miniaturized greenhouse assay was conducted to study the effects of several N-,C-disubstituted azole analogs on Meloidogyne incognita nematodes.
Cucumber seeds were sprouted for 3 days in moist paper towels. Acceptable sprouts were 3 to 4 cm long, with several lateral roots just emerging.
Each test solution was evaluated in triplicate. Dry sand (10 mL) was added to each vial. Seedlings were planted by tilting the vial and laying the seedling in the correct orientation so that the cotyledons were just above the sand, and then tilting back to cover the radicles with sand.
A sample of the test solution (3.3 mL) was then added to each vial, and the vials were placed in racks under fluorescent light banks. The vials were inoculated two days after planting by adding 500 vermiform M. incognita eggs to each vial in deionized or spring water (50 μL). The vials were then kept under the fluorescent lamps at ambient room temperature and watered as needed with deionized water (1 mL), usually twice during duration of test.
Harvest of the cucumber plants was performed 10 to 12 days after inoculation by washing sand off the roots. A root gall rating was assigned using the following Gall rating scale (Gall: % root mass galled): 0=0-5%; 1=6-20%; 2=21-50%; and 3=51-100%.

[2] = 1 ppm, cucumber seedlings in sand, 500 M. incognita eggs, harvest 10 to 12 days after inoculation, scale 0=0-5%, 1=6-20%, 2=21-50%, 3=51-100% root mass galled
[3] = 8 ppm, cucumber seedlings in sand, 500 M. incognita eggs, harvest 10 to 12 days after inoculation, scale 0=0-5%, 1=6-20%, 2=21-50%, 3=51-100% root mass galled
[4] = 40 ppm, cucumber seedlings in sand, 500 M. incognita eggs, harvest 10 to 12 days after inoculation, scale 0=0-5%, 1=6-20%, 2=21-50%, 3=51-100% root mass galled

Compound | melting point [°C] | 40/8/1 ppm gall ratings [1, 2] | 40/8/1 ppm gall ratings [1, 3] | 40/8/1 ppm gall ratings [1, 4] | 40/8/1 ppm gall ratings ([1]; comparative compositions at 1 ppm, letters a-d mark separate tests, scale 0-3)
c1ccc(-n2cc(-c3ccco3)nn2)cc1 [Formula Ia-i, 4-(furan-2-yl)-1-phenyl-1H-1,2,3-triazole] | 118 to 120 |  |  |  | 
c1ccc(-n2ncc(-c3cccs3)n2)cc1 [Formula Id-i, 2-phenyl-4-(thiophen-2-yl)-2H-1,2,3-triazole] | 78 |  |  |  | 
Fc1ccc(-c2cn(-c3cccs3)nn2)c(F)c1 [IIa-i, 4-(2,4-difluorophenyl)-1-(thiophen-2-yl)-1H-1,2,3-triazole] |  | 1.67 | 0.00 | 0.00 | 
c1ccc(-c2cn(-c3cccs3)nn2)cc1 [IIa-ii, 4-phenyl-1-(thiophen-2-yl)-1H-1,2,3-triazole] |  | 1.67 | 0.00 | 0.00 | 
c1ccc(-c2cn(-c3ccco3)nn2)cc1 [IIa-iii, 1-(furan-2-yl)-4-phenyl-1H-1,2,3-triazole] |  | 2.00 | 1.33 | 0.00 | 
Fc1ccc(-c2cn(-c3cccs3)nn2)cc1 [IIa-iv, 4-(4-fluorophenyl)-1-(thiophen-2-yl)-1H-1,2,3-triazole] |  | 2.67 | 1.33 | 0.33 | 
Clc1ccc(-c2cn(-c3ccco3)nn2)cc1 [IIa-v, 4-(4-chlorophenyl)-1-(furan-2-yl)-1H-1,2,3-triazole] |  | 2.33 | 0.67 | 0.00 | 
Clc1ccc(-c2cn(-c3cccs3)cn2)cc1 [IIc-i, 4-(4-chlorophenyl)-1-(thiophen-2-yl)-1H-imidazole] |  | 1.67 | 1.33 | 0.00 | 
c1ccc(-c2cn(-c3cccs3)cn2)cc1 [IIc-iii, 4-phenyl-1-(thiophen-2-yl)-1H-imidazole] |  | 2.33 | 1.33 | 0.00 | 
Clc1ccc(-c2cn(-c3ccco3)cn2)cc1 [IIc-iv, 4-(4-chlorophenyl)-1-(furan-2-yl)-1H-imidazole] |  | 2.33 | 2.00 | 0.33 | 
c1ccc(-n2cc(-c3ccco3)nn2)cc1 [Ia-i, 4-(furan-2-yl)-1-phenyl-1H-1,2,3-triazole] |  | 2.67 | 1.33 | 0.00 | 
Fc1ccc(-n2cc(-c3cccs3)nn2)c(F)c1 [Ia-ii, 1-(2,4-difluorophenyl)-4-(thiophen-2-yl)-1H-1,2,3-triazole] |  | 3.00 | 2.33 | 0.00 | 
Clc1ccc(-n2cc(-c3ccco3)nn2)cc1 [Ia-iiii, 1-(4-chlorophenyl)-4-(furan-2-yl)-1H-1,2,3-triazole] |  | 2.67 | 1.00 | 0.00 | 
Fc1ccc(-n2cc(-c3ccco3)nn2)cc1 [Ia-iv, 1-(4-fluorophenyl)-4-(furan-2-yl)-1H-1,2,3-triazole] |  | 2.33 | 1.67 | 0.33 | 
Fc1ccc(-n2cc(-c3ccco3)nn2)c(F)c1 [Ia-v, 1-(2,4-difluorophenyl)-4-(furan-2-yl)-1H-1,2,3-triazole] |  | 2.33 | 0.67 | 0.00 | 
c1ccc(-n2cc(-c3cccs3)cn2)cc1 [Ib-i, 1-phenyl-4-(thiophen-2-yl)-1H-pyrazole] |  | 3.00 | 0.33 | 0.00 | 
Clc1ccc(-n2cc(-c3cccs3)cn2)cc1 [Ib-ii, 1-(4-chlorophenyl)-4-(thiophen-2-yl)-1H-pyrazole] |  | 2.33 | 0.67 | 0.00 | 
c1ccc(-n2cc(-c3ccco3)cn2)cc1 [Ib-iii, 4-(furan-2-yl)-1-phenyl-1H-pyrazole] |  | 2.67 | 1.67 | 0.00 | 
Clc1ccc(-n2cnc(-c3ccco3)c2)cc1 [Ic-i, 1-(4-chlorophenyl)-4-(furan-2-yl)-1H-imidazole] |  | 3.00 | 2.00 | 0.33 | 
c1ccc(-n2ncc(-c3cccs3)n2)cc1 [Id-i, 2-phenyl-4-(thiophen-2-yl)-2H-1,2,3-triazole] |  | 1.67 | 0.33 | 0.00 | 
c1ccc(-n2ncc(-c3ccco3)n2)cc1 [Id-ii, 4-(furan-2-yl)-2-phenyl-2H-1,2,3-triazole] |  | 2.33 | 1.00 | 0.00 | 
Abamectin [reference compound] |  |  |  |  | 1.67^d
